Source: article PMC6544300, “Mechanism of the efflux transport of demethoxycurcumin-O-glucuronides in HeLa cells stably transfected with UDP-glucuronosyltransferase 1A1” (PLoS ONE, 2019)

Key:
BCRP = molecular target: T1, BCRP (Homo sapiens, UniProt Q9UNQ0); experiment: shRNA-mediated BCRP knock-down, glucuronide excretion in HeLa1A1 cells; assay type: cell-based; parameters: BCRP, MRP1, MRP3, and MRP4 were detected in both wild-type HeLa and HeLa1A1 cells; endogenous in cells; host or cells: HeLa1A1 cells; conditions: BCRP silencing, DMC 4 μM; for reduction of efflux excretion rate: Fig 8C; for increase of intracellular level: Fig 8D; for decrease in fmet value: Fig 8E
T1 sequence (Q9UNQ0 1-655): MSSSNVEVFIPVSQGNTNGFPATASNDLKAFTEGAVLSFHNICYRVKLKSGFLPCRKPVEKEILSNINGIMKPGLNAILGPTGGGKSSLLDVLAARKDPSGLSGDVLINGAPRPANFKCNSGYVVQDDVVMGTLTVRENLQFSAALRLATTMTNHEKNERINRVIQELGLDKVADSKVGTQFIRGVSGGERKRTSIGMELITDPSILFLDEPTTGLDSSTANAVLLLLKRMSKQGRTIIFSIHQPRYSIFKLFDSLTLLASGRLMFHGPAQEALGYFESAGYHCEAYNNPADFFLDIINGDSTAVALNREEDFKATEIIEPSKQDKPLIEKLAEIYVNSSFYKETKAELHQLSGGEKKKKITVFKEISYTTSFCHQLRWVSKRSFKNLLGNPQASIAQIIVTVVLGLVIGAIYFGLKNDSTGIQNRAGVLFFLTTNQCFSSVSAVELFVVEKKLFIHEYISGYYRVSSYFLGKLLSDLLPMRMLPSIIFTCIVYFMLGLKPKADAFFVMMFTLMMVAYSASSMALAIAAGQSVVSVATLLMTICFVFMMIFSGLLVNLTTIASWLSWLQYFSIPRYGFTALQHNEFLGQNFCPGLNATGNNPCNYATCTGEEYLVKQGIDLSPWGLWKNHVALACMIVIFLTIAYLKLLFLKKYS
Procedure: (§1) Prior to the assays, HeLa1A1 cells were washed twice with prewarmed (37°C) Hank’s balanced salt solution (HBSS, pH = 7.4). Subsequently, HeLa1A1 cells were pretreated and incubated with DMC (2, 4 or 8 μM) and dissolved in 2 mL of HBSS. The sampling times were selected to ensure that the plots of the amount excreted versus time remained in the linear range. At each time point (0.5, 1.0, 1.5 and 2.0 h), 200 μL of incubation solutions were collected from each well, and an equal volume of loading media was used to replenish each well. Then, the collected samples were each mixed with 100 μL of ice-cold acetonitrile. The supernatants (8.0 μL) were subjected to an ultra high-performance liquid chromatography (UHPLC) analysis after centrifugation (10 min at 13,800 g).
(§2) Furthermore, the excretion rates of generated glucuronides were calculated using Eq (1). In addition, the fraction metabolized (fmet) value was defined as the fraction of the dose metabolized based on Eq (2). V represents the volume of the incubation medium, C represents the concentration of excreted glucuronides, and t represents the incubation time.
(§3) The shRNA plasmids targeting the efflux transporters BCRP, MRP1, MRP3 and MRP4 were constructed using previously described methods. HeLa1A1 cells were transiently transfected with the corresponding shRNA plasmids. The procedures for the establishment of HeLa1A1-BCRP-shRNA cells, HeLa1A1-MRP1-shRNA cells, HeLa1A1-MRP3-shRNA cells and HeLa1A1-MRP4-shRNA cells are detailed in our previous publication. Moreover, levels of the BCRP, MRP1, MRP3 and MRP4 proteins in these constructed HeLa1A1 cells were determined by western blotting assays, as described previously.

MRP3 = molecular target: T2, MRP3 (Homo sapiens, UniProt O15438); experiment: shRNA-mediated MRP3 knock-down, glucuronide excretion in HeLa1A1 cells; assay type: cell-based; conditions: DMC 4 μM; for decrease of fmet value: MRP3 partial knock-down, Fig 10E; for decrease in efflux excretion clearance / increase in intracellular level: MRP3 silencing; for decrease in efflux excretion clearance: Fig 10C; for increase in intracellular level: Fig 10D
T2 construct: BCRP, MRP1, MRP3, and MRP4 were detected in both wild-type HeLa and HeLa1A1 cells; endogenous in cells; host or cells: HeLa1A1 cells (MRP3-shRNA versus scrambled shRNA)
T2 sequence (O15438 whole entry): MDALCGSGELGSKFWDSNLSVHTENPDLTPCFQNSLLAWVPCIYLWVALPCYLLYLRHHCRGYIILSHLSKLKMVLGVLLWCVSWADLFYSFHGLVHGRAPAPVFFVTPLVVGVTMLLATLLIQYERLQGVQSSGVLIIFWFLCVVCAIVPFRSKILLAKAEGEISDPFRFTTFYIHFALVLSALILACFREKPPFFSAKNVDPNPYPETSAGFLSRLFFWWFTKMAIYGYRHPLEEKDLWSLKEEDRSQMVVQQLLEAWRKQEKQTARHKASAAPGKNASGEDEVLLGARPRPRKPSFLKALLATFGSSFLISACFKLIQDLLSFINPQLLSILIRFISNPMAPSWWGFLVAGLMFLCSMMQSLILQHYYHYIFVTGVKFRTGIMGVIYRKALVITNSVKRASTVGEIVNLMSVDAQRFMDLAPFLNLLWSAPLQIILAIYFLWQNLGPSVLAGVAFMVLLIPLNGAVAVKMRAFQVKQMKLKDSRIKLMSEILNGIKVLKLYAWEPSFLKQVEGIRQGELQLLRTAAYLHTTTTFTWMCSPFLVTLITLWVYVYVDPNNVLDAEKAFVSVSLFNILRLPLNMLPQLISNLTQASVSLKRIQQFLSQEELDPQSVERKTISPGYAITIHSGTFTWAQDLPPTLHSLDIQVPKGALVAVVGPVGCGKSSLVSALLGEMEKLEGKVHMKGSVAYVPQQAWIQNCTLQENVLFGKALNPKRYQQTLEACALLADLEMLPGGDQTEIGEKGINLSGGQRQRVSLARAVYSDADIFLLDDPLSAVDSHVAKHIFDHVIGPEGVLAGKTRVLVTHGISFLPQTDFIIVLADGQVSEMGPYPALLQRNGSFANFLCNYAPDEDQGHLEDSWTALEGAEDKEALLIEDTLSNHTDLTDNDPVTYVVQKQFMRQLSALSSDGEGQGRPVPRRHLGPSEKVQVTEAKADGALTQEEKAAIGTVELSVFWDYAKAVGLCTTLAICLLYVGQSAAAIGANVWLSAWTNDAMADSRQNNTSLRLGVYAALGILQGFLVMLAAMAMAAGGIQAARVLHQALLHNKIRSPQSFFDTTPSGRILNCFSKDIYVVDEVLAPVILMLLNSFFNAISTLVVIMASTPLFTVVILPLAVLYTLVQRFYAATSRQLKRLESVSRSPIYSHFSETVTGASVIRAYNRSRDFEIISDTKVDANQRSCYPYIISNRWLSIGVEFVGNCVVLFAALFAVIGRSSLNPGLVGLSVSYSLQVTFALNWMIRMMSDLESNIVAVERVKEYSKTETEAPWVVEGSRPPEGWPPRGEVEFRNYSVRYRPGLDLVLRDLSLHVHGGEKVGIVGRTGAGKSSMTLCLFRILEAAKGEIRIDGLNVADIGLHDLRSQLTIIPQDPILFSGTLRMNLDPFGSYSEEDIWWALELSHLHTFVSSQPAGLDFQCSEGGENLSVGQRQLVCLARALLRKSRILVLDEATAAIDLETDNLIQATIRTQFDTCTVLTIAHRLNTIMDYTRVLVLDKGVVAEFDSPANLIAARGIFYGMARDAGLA
Procedure: as §1, §2, §3

MRP1 = molecular target: T3, MRP1 (Homo sapiens, UniProt P33527); experiment: shRNA-mediated MRP1 knock-down, glucuronide excretion in HeLa1A1 cells; assay type: cell-based; conditions: DMC 4 μM; for decrease of efflux excretion rate / decrease of metabolized fraction: MRP1 knock-down; for decrease of efflux excretion rate: Fig 9C; for decrease of metabolized fraction: Fig 9E; for increase in intracellular level: MRP1 silencing, Fig 9D
T3 construct: BCRP, MRP1, MRP3, and MRP4 were detected in both wild-type HeLa and HeLa1A1 cells; endogenous in cells; host or cells: HeLa1A1 cells (MRP1-shRNA versus scrambled shRNA)
T3 sequence (P33527 whole entry): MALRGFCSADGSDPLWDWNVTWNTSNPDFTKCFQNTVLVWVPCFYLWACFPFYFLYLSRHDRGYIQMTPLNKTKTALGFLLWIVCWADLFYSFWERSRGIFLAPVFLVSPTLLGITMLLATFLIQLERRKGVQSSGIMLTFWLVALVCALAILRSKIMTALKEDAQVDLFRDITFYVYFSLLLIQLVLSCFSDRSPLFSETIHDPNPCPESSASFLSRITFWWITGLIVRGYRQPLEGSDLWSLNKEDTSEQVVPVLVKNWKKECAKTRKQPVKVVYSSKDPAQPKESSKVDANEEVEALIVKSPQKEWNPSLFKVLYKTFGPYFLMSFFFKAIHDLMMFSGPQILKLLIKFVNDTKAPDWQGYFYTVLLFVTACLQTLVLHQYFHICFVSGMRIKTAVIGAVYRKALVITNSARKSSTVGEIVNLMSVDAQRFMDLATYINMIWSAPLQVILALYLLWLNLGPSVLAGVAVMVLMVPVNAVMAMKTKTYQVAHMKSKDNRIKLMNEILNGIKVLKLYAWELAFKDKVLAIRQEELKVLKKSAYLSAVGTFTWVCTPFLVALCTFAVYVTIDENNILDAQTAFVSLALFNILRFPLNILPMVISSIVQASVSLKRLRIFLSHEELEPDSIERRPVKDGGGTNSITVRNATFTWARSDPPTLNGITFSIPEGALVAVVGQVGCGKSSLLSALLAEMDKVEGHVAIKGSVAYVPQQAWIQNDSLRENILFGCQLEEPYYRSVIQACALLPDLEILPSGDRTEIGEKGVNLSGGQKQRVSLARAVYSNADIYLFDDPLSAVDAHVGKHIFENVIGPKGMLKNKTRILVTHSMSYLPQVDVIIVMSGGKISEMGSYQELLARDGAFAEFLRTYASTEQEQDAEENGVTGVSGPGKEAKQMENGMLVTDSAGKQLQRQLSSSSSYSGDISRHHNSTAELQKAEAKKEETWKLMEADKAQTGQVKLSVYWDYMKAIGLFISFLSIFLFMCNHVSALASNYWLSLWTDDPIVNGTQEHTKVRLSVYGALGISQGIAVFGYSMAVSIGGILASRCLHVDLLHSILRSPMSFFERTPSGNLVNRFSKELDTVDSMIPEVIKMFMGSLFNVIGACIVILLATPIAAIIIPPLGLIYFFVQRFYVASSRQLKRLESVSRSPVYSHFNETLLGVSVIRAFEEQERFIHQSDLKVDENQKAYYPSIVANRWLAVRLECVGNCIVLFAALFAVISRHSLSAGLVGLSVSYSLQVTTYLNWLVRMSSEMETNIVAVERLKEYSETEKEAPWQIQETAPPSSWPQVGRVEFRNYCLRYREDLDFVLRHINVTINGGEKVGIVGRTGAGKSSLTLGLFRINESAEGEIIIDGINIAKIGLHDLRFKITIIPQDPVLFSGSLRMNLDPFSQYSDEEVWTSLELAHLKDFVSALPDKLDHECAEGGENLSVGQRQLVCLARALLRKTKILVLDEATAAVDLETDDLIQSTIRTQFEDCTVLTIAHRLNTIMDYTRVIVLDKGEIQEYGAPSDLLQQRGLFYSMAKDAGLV
Procedure: as §1, §2, §3

BCRP transporter = system: BCRP transporter; parameters: method as in PMID 12477054; conditions: cited from earlier work
UGT1A1 = molecular target: T4, UGT1A1 (Homo sapiens, UniProt P22309); experiment: Chemical inhibition of DMC-O-glucuronidation by UGT1A1 inhibitors in HeLa1A1 cell lysate; assay type: biochemical; parameters: expressed in transfected cells; host or cells: HeLa cells stably overexpressing UGT1A1 (HeLa1A1), used as cell lysate; conditions: DMC 4 μM, HeLa1A1 cell lysate 2.3 mg/mL
T4 sequence (P22309 26-533): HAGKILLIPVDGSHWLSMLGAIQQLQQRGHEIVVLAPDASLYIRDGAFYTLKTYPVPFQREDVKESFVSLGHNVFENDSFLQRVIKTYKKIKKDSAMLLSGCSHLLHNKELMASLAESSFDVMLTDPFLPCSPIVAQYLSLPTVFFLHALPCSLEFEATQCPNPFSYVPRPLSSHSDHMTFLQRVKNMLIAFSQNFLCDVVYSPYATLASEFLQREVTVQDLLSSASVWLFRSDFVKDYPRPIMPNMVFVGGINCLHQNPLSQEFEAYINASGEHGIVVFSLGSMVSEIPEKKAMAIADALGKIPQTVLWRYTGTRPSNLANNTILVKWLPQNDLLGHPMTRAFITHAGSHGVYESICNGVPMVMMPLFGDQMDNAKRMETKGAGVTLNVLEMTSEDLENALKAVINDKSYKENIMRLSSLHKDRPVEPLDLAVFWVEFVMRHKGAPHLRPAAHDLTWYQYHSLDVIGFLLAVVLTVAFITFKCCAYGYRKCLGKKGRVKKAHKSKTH
Procedure: The glucuronidation assay was performed as previously described. Briefly, alamethicin (22 μg/mL), D-saccharic-1,4-lactone (4.4 mM), MgCl2 (0.88 mM), UGT1A1 (1.0 mg/mL) or HeLa1A1 cell lysates (2.3 mg/mL) and DMC (0.5 to 40 μM) were mixed in a 50 mM Tris buffer (pH 7.4). After a preincubation at 37°C for 5 min, UDPGA (3.5 mM) was added to the incubation system, and the mixture was further incubated. After 30 min, the reactions were terminated by the addition of ice-cold acetonitrile (200 μL). The mixed samples were centrifuged at 13,800 x g for 10 min, and the supernatant was analyzed using UHPLC.
Analyses of chemical inhibition and activity correlations were performed as two additional independent assays to determine the roles of the UGT1A1 enzyme. In these studies, nilotinib (10 μM), glycyrrhetinic acid (20 μM) and protopanaxatriol (500 μM) were used as UGT1A1 inhibitors to investigate the metabolic activities of DMC (4 μM). The incubation conditions were the same as those used for the glucuronidation activity assays.

| Compound | reduction of efflux excretion rate (BCRP) [%] | increase of intracellular level (BCRP) [%] | decrease in fmet value (BCRP) [%] | decrease of fmet value (MRP3) [%] | decrease in efflux excretion clearance (MRP3) [%] | increase in intracellular level (MRP3) [%] | decrease of efflux excretion rate (MRP1) [%] | decrease of metabolized fraction (MRP1) [%] | increase in intracellular level (MRP1) [%] | further results |
| --- | --- | --- | --- | --- | --- | --- | --- | --- | --- | --- |
| COc1cc(/C=C/C(=O)CC(=O)/C=C/c2ccc(O)cc2)ccc1O[C@@H]1O[C@H](C(=O)O)[C@@H](O)[C@H](O)[C@H]1O [G1] | 29.9 | 40.9 | 20.1 | 16.2 | 19.7 | 31.5 | 20.8 | 16.5 | 33.1 |  |
| COc1cc(/C=C/C(=O)CC(=O)/C=C/c2ccc(O[C@@H]3O[C@H](C(=O)O)[C@@H](O)[C@H](O)[C@H]3O)cc2)ccc1O [G2] | 33.0 | 51.6 | 24.5 | 27.9 | 26.4 | 32.1 | 36.9 | 29.8 | 36.1 |  |
| COc1ccc2c3c([nH]c2c1)[C@H](CC(C)C)N1C(=O)[C@H](CCC(=O)OC(C)(C)C)NC(=O)[C@@H]1C3 [Ko143] |  |  |  |  |  |  |  |  |  | IC50 (BCRP transporter): 23 nM |
| Cc1cn(-c2cc(NC(=O)c3ccc(C)c(Nc4nccc(-c5cccnc5)n4)c3)cc(C(F)(F)F)c2)cn1 [Nilotinib, nilotinib] |  |  |  |  |  |  |  |  |  | formation of G1 and G2 (UGT1A1; inhibitor 10 μM): significantly inhibited |
| CC1(C)[C@@H](O)CC[C@]2(C)[C@H]3C(=O)C=C4[C@@H]5C[C@@](C)(C(=O)O)CC[C@]5(C)CC[C@@]4(C)[C@]3(C)CC[C@@H]12 [glycyrrhetinic acid] |  |  |  |  |  |  |  |  |  | formation of G1 and G2 (UGT1A1; inhibitor 20 μM): significantly inhibited |
| CC(C)=CCC[C@](C)(O)[C@H]1CC[C@]2(C)[C@@H]1[C@H](O)C[C@@H]1[C@@]3(C)CC[C@H](O)C(C)(C)[C@@H]3[C@@H](O)C[C@]12C [protopanaxatriol] |  |  |  |  |  |  |  |  |  | formation of G1 and G2 (UGT1A1; inhibitor 500 μM): significantly inhibited |
